Data on eight molecules can be found in patent publication US12721844B2, “Chronic kidney disease treatment or prevention method” (Japan Tobacco Inc., priority 2019, dated 2026).

Where “and” joins values, the source holds several entries; their conditions need not be identical. Equal entries are not always repeated.

What all share (assay type): cell-based
Data set [1] has as its system Escherichia coli WP2 uvrA. The data set can be described thus: Ames test (reverse mutation test), WP2 uvrA. The note with it: S9 Mix −. An excerpt: (§1) Ames Test (Reverse Mutation Test)
(§2) Two plates per treatment were used.

In data set [2] the test system is Salmonella typhimurium TA98. The data set can be described thus: Ames test (reverse mutation test), TA98. The note with it: with S9 mix.
Source text: as §1, §2

Data set [3] has as its system Salmonella typhimurium TA1537. Put plainly: Ames test (reverse mutation test), TA1537.
Source text: as §1, §2

For data set [4], the system named is Salmonella typhimurium TA1535. The data set can be described thus: Ames test (reverse mutation test), TA1535.
Source text: as §1, §2

Data set [5] relates to Salmonella typhimurium TA100. The data set can be described thus: Ames test (reverse mutation test), TA100. The note with it: with S9 mix.
Source text: as §1, §2

Setting [6] is: with S9 mix, dose 1667 μg/plate.
The mark [7] stands for this setting: with S9 mix, dose 5000 μg/plate.

For `NC(=O)C(=Cc1ccc([N+](=O)[O-])o1)c1ccco1` [AF-2, 2-(2-Furyl)-3-(5-nitro-2-furyl)acrylamide, reference compound], the “Number of revertant colonies WP2uvrA” value in data set [1] (0.01 μg/plate) was 74 and 89 and 100 and 87 and 79.
Regarding `Nc1ccc2cc3ccccc3cc2c1` [Example 2AA, 2-Aminoanthracene, reference compound], the “Number of revertant colonies TA98” value in data set [2] (dose 0.5 μg/plate (positive control)) is recorded as 289. The “Number of revertant colonies TA1537” value in data set [3] (with S9 mix, dose 2 μg/plate (positive control)) worked out at 135. Moreover, the “Number of revertant colonies TA1535” value in data set [4] (S9 Mix +, 2.0 μg/plate) is 332 and 308 and 331 and 261 and 349; in data set [4] (with S9 mix, dose 2.0 (2) μg/plate (positive control)), 223 and 146 and 250.
Turning to `Cl.Nc1c2ccccc2nc2ccccc12.O` [Example 9AA, 9-Aminoacridine hydrochloride monohydrate, reference compound], the “Number of revertant colonies TA1537” value in data set [3] (without S9 mix, dose 80 μg/plate (positive control)) was 372.
Take `CC(C)(C)Oc1cccc(-c2cc(N)nn2-c2ccccc2)c1` [Metabolite C]: the “potential to induce reverse mutations, TA100” value (from here on “potential … TA100”) in data set [5] is “showed potential to induce reverse mutations”. Also, the “potential to induce reverse mutations, TA98” value (“potential … TA98” below) in data set [2] was “showed potential to induce reverse mutations”. The “Number of revertant colonies TA1537” value in data set [3] (with S9 mix, dose 2.3 μg/plate) is given as 6; in data set [3] (with S9 mix, dose 6.9 μg/plate), 7; in data set [3] (with S9 mix, dose 21 μg/plate) it was 7; in data set [3] (with S9 mix, dose 62 μg/plate) it was 9; in data set [3] (with S9 mix, dose 185 μg/plate) it was 9; in data set [3] (with S9 mix, dose 556 μg/plate), 4. Moreover, the entries for the “Number of revertant colonies TA1537” value in data set [3] (setting [6]) and in data set [3] (setting [7]) were 4 and 5, respectively. The “Number of revertant colonies TA1535” value in data set [4] (S9 Mix −, 2.3 μg/plate) was 6; in data set [4] (S9 Mix −, 6.9 μg/plate), 5; in data set [4] (S9 Mix −, 21 μg/plate), 6; in data set [4] (S9 Mix −, 62 μg/plate), 3; in data set [4] (S9 Mix −, 185 μg/plate), 4; in data set [4] (S9 Mix −, 556 μg/plate), 0. The “Number of revertant colonies TA1535” value in data set [4] (S9 Mix −, 1667 μg/plate) came to 1; in data set [4] (S9 Mix −, 5000 μg/plate), 0; in data set [4] (with S9 mix, dose 2.3 μg/plate) it was 8; in data set [4] (with S9 mix, dose 6.9 μg/plate), 8; in data set [4] (with S9 mix, dose 21 μg/plate), 5; in data set [4] (with S9 mix, dose 62 μg/plate), 4. In addition, the “Number of revertant colonies TA1535” value in data set [4] (with S9 mix, dose 185 μg/plate) came out at 5; in data set [4] (with S9 mix, dose 556 μg/plate), 4; in data set [4] (setting [6]), 5; in data set [4] (setting [7]) it was 4.
Consider `CC(C)(OCc1cc(F)cc(-c2cc(N)nn2-c2ccc(F)cc2)c1)C(F)(F)F` [Metabolite D], for which the “potential … TA98” value in data set [2] is “showed potential to induce reverse mutations”. Further, the “potential to induce reverse mutations, TA1537” value (from here on “potential … TA1537”) in data set [3] (with S9 mix) is reported as “showed potential to induce reverse mutations”. Also, the “Number of revertant colonies TA1535” value in data set [4] (S9 Mix +, 2.3 μg/plate) amounted to 10; in data set [4] (S9 Mix +, 6.9 μg/plate), 15; in data set [4] (S9 Mix +, 21 μg/plate), 14; in data set [4] (S9 Mix +, 62 μg/plate), 11; in data set [4] (S9 Mix +, 185 μg/plate), 9; in data set [4] (S9 Mix +, 556 μg/plate), 7. In addition, the “Number of revertant colonies TA1535” value in data set [4] (S9 Mix +, 1667 μg/plate) amounted to 7; in data set [4] (S9 Mix +, 5000 μg/plate), 3; in data set [4] (S9 Mix −, 2.3 μg/plate) it was 20; in data set [4] (S9 Mix −, 6.9 μg/plate), 21; in data set [4] (S9 Mix −, 21 μg/plate) it was 11; in data set [4] (S9 Mix −, 62 μg/plate), 6. The “Number of revertant colonies TA1535” value was found to be 9 in data set [4] (S9 Mix −, 185 μg/plate); 5 in data set [4] (S9 Mix −, 556 μg/plate); 6 in data set [4] (S9 Mix −, 1667 μg/plate); 7 in data set [4] (S9 Mix −, 5000 μg/plate).
For `Nc1cc(-c2cccc(OCC(F)(F)F)c2)n(-c2ccc(F)cc2)n1` [Metabolite E], the “potential … TA100” value in data set [5] is on record as “showed potential to induce reverse mutations”. The “potential … TA98” value in data set [2] was “showed potential to induce reverse mutations”. For the same molecule, the “potential … TA1537” value in data set [3] (with S9 mix) and in data set [3] (without S9 mix) was “showed potential to induce reverse mutations” each time. The “Number of revertant colonies TA1535” value is recorded as 18 in data set [4] (S9 Mix +, 2.3 μg/plate); 32 in data set [4] (S9 Mix +, 6.9 μg/plate); 20 in data set [4] (S9 Mix +, 21 μg/plate); 21 in data set [4] (S9 Mix +, 62 μg/plate); 15 in data set [4] (S9 Mix +, 185 μg/plate); 7 in data set [4] (S9 Mix +, 556 μg/plate). Moreover, the “Number of revertant colonies TA1535” value in data set [4] (S9 Mix +, 1667 μg/plate) was 0; in data set [4] (S9 Mix +, 5000 μg/plate) it was 0; in data set [4] (S9 Mix −, 2.3 μg/plate) it was 10; in data set [4] (S9 Mix −, 6.9 μg/plate) it was 18; in data set [4] (S9 Mix −, 21 μg/plate), 12; in data set [4] (S9 Mix −, 62 μg/plate), 15. In addition, the “Number of revertant colonies TA1535” value is recorded as 6 in data set [4] (S9 Mix −, 185 μg/plate); 0 in data set [4] (S9 Mix −, 556 μg/plate); 0 in data set [4] (S9 Mix −, 1667 μg/plate); 0 in data set [4] (S9 Mix −, 5000 μg/plate). In addition, in data set [4] (with S9 mix), the “potential to induce reverse mutations, TA1535” value is reported as “showed potential to induce reverse mutations”. The “Number of revertant colonies WP2uvrA” value in data set [1] (2.3 μg/plate) worked out at 20; in data set [1] (6.9 μg/plate), 26; in data set [1] (21 μg/plate), 24; in data set [1] (62 μg/plate), 27; in data set [1] (185 μg/plate) it was 22; in data set [1] (556 μg/plate) it was 10. The results for the “Number of revertant colonies WP2uvrA” value in data set [1] (1667 μg/plate) and in data set [1] (5000 μg/plate) were 15 and 7, respectively.
On to `Nc1cc(-c2cccc(OC(F)(F)F)c2)n(-c2cccc(F)c2)n1` [Metabolite G], for which the “potential … TA100” value in data set [5] is “showed potential to induce reverse mutations”. Moreover, the “Number of revertant colonies TA1535” value in data set [4] (S9 Mix +, 2.3 μg/plate) worked out at 12; in data set [4] (S9 Mix +, 6.9 μg/plate), 14; in data set [4] (S9 Mix +, 21 μg/plate), 11; in data set [4] (S9 Mix +, 62 μg/plate), 8; in data set [4] (S9 Mix +, 185 μg/plate), 5; in data set [4] (S9 Mix +, 556 μg/plate) it was 5. For the same molecule, the “Number of revertant colonies TA1535” value in data set [4] (S9 Mix +, 1667 μg/plate) turned out to be 4; in data set [4] (S9 Mix +, 5000 μg/plate), 4; in data set [4] (S9 Mix −, 2.3 μg/plate), 15; in data set [4] (S9 Mix −, 6.9 μg/plate) it was 16; in data set [4] (S9 Mix −, 21 μg/plate), 21; in data set [4] (S9 Mix −, 62 μg/plate), 9. Besides, the “Number of revertant colonies TA1535” value amounted to 9 in data set [4] (S9 Mix −, 185 μg/plate); 0 in data set [4] (S9 Mix −, 556 μg/plate); 0 in data set [4] (S9 Mix −, 1667 μg/plate); 0 in data set [4] (S9 Mix −, 5000 μg/plate). The “potential to induce reverse mutations, TA1535” value in data set [4] (without S9 mix) was “showed potential to induce reverse mutations”. Moreover, the “Number of revertant colonies WP2uvrA” value was found to be 26 in data set [1] (2.3 μg/plate); 23 in data set [1] (6.9 μg/plate); 16 in data set [1] (21 μg/plate); 14 in data set [1] (62 μg/plate); 15 in data set [1] (185 μg/plate); 10 in data set [1] (556 μg/plate). The “Number of revertant colonies WP2uvrA” value was determined as 17 in data set [1] (1667 μg/plate) and 6 in data set [1] (5000 μg/plate).
As for `Cc1cccc(-n2nc(N)cc2-c2cccc(OC(F)(F)F)c2)c1` [Metabolite H], in data set [5], the “potential … TA100” value was “showed potential to induce reverse mutations”. For the same molecule, the “potential … TA98” value in data set [2] is given as “showed potential to induce reverse mutations”. Also, the “potential … TA1537” value in data set [3] (with S9 mix) is listed as “showed potential to induce reverse mutations”. For the same molecule, the “Number of revertant colonies TA1535” value amounted to 11 in data set [4] (S9 Mix +, 2.3 μg/plate); 14 in data set [4] (S9 Mix +, 6.9 μg/plate); 19 in data set [4] (S9 Mix +, 21 μg/plate); 15 in data set [4] (S9 Mix +, 62 μg/plate); 13 in data set [4] (S9 Mix +, 185 μg/plate); 6 in data set [4] (S9 Mix +, 556 μg/plate). The “Number of revertant colonies TA1535” value in data set [4] (S9 Mix +, 1667 μg/plate) is recorded as 3; in data set [4] (S9 Mix +, 5000 μg/plate) it was 3; in data set [4] (S9 Mix −, 2.3 μg/plate), 12; in data set [4] (S9 Mix −, 6.9 μg/plate) it was 17; in data set [4] (S9 Mix −, 21 μg/plate), 18; in data set [4] (S9 Mix −, 62 μg/plate), 14. The “Number of revertant colonies TA1535” value in data set [4] (S9 Mix −, 185 μg/plate) turned out to be 14; in data set [4] (S9 Mix −, 556 μg/plate), 6; in data set [4] (S9 Mix −, 1667 μg/plate), 6; in data set [4] (S9 Mix −, 5000 μg/plate) it was 4.
